The values that follow come from patent publication US20210395239A1 (Hoffmann-La Roche Inc., priority 2018, published 2021).

The target in this assay is T1, hTLR9 (Homo sapiens, UniProt Q9NR96).
T1 sequence (Q9NR96 26-1032): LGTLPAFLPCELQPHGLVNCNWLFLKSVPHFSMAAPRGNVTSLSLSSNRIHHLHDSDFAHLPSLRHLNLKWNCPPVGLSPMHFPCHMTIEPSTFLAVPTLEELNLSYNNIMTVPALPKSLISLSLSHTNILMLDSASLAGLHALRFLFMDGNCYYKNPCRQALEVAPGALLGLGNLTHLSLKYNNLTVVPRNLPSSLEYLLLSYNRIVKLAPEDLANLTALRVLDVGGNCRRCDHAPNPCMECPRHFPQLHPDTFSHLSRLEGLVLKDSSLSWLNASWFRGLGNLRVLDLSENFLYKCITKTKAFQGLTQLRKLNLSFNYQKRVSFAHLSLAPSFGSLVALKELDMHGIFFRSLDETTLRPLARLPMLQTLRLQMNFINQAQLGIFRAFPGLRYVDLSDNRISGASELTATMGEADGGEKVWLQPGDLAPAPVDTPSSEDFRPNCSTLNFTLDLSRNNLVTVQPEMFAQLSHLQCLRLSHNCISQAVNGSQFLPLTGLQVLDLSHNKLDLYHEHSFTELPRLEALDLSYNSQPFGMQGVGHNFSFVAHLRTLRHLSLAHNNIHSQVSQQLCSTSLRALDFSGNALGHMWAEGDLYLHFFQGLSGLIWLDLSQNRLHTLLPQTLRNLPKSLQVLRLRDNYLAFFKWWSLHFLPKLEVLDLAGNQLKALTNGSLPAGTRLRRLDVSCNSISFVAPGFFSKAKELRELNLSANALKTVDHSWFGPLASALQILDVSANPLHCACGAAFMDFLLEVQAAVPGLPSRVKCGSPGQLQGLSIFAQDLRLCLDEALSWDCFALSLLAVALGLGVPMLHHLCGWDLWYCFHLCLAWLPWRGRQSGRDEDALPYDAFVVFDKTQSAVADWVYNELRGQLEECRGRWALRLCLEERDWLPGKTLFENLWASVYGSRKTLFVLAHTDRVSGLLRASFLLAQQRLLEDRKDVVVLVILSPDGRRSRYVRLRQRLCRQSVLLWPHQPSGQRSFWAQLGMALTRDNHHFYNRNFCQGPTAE
Description: HEK293-Blue-hTLR-9 cells assay (SEAP reporter, ODN2006 stimulation). The assay is classed as cell-based. Conditions: HEK293-Blue-hTLR9 cells, ODN2006, 20 hrs; read-out: HEK/hTLR9 IC50. Set-up: host or cells: HEK293 (HEK-Blue hTLR9). A digest of the protocol: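 Antagonism read as lowered SEAP reporter absorbance (620–655 nm, QUANTI-Blue, 2 h, 37 °C) in supernatants. Before that, ODN2006-stimulated HEK293-Blue cells stably expressing human TLR9 were exposed to compound dilutions at 1% final DMSO for 20 h at 37 °C.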
In the case of `CO[C@H]1CN(c2nc(C)cc(N3CCN(C[C@H]4CN(c5ccc(C#N)c6ncccc56)C[C@@H](C)O4)CC3)n2)CC1N` (relative stereo) [Example 59, 5-[(2R,6S)-2-methyl-6-[[4-[6-methyl-2-[trans-3-amino-4-methoxy-pyrrolidin-1-yl]pyrimidin-4-yl]piperazin-1-yl]methyl]morpholin-4-yl]quinoline-8-carbonitrile], the IC50 was 32 nM.

As to `COC1CNC[C@H]1Nc1cccc(N2CCN(C[C@H]3CN(c4ccc(C#N)c5ncccc45)C[C@@H](C)O3)CC2)n1` (stereo in doubt) [Example 39, 5-[(2S,6R)-2-[[4-[6-[[(3R,4R)-4-methoxypyrrolidin-3-yl]amino]-2-pyridyl]piperazin-1-yl]methyl]-6-methyl-morpholin-4-yl]quinoline-8-carbonitrile], the IC50 is 104 nM.

For the compound `COC1CN(c2nccc(N3CCN(C[C@H]4CN(c5ccc(C#N)c6ncccc56)C[C@@H](C)O4)CC3)n2)C[C@H]1N` (stereo in doubt) [Example 52, 5-[(2S,6R)-2-[[4-[2-[(3R,4R)-3-amino-4-methoxy-pyrrolidin-1-yl]pyrimidin-4-yl]piperazin-1-yl]methyl]-6-methyl-morpholin-4-yl]quinoline-8-carbonitrile], the IC50 came out at 32 nM.

`CO[C@H]1CN(c2nccc(N3CCN(C[C@H]4CN(c5ccc(C#N)c6ncccc56)C[C@@H](C)O4)CC3)n2)CC1N` (stereo in doubt) [Example 53, 5-[(2S,6R)-2-[[4-[2-[(3S,4S)-3-amino-4-methoxy-pyrrolidin-1-yl]pyrimidin-4-yl]piperazin-1-yl]methyl]-6-methyl-morpholin-4-yl]quinoline-8-carbonitrile]: the IC50 amounted to 32 nM.

For the compound `Cc1cc(N2CCN(C[C@H]3CN(c4ccc(C#N)c5ncccc45)C[C@@H](C)O3)CC2)nc(N2CC(N)C(F)C2)n1` (stereo in doubt) [Example 54, 5-[(2S,6R)-2-[[4-[2-[(3S,4R)-3-amino-4-fluoro-pyrrolidin-1-yl]-6-methyl-pyrimidin-4-yl]piperazin-1-yl]methyl]-6-methyl-morpholin-4-yl]quinoline-8-carbonitrile], the IC50 stood at 34 nM.

In the case of `COC1CN(c2ccc(C3CN(C[C@H]4CN(c5cc(=O)n(C)c6ncccc56)C[C@@H](C)O4)C3)cc2)C[C@H]1N` (stereo in doubt) [Example 172, 4-[(2S,6R)-2-[[3-[4-[(3R,4R)-3-amino-4-methoxy-pyrrolidin-1-yl]phenyl]azetidin-1-yl]methyl]-6-methyl-morpholin-4-yl]-1-methyl-1,8-naphthyridin-2-one], the IC50 is 57 nM.

Consider `C[C@@H]1CN(c2cc(=O)n(C)c3ncccc23)C[C@H](CN2CC(c3ccc(N4CC(F)[C@H](N)C4)cc3)C2)O1` (stereo in doubt) [Example 174, 4-[(2S,6R)-2-[[3-[4-[(3R,4R)-3-amino-4-fluoro-pyrrolidin-1-yl]phenyl]azetidin-1-yl]methyl]-6-methyl-morpholin-4-yl]-1-methyl-1,8-naphthyridin-2-one], for which the IC50 stood at 86 nM.

Take `C[C@@H]1CN(c2ccc(C#N)n3ncc(F)c23)C[C@H](CN2CCN(c3ccc(C4CNCCO4)cc3F)CC2)O1` (stereo in doubt) [Example 183, 3-fluoro-4-[(2S,6R)-2-[[4-[2-fluoro-4-[(2S)-morpholin-2-yl]phenyl]piperazin-1-yl]methyl]-6-methyl-morpholin-4-yl]pyrazolo[1,5-a]pyridine-7-carbonitrile]: the IC50 was found to be 120 nM.

As for `C[C@@H]1CN(c2ccc(C#N)c3ncccc23)C[C@H](CN2CCN(c3cncc(N4CCNCC4)c3)CC2)O1` [Example 7, 5-[(2R,6S)-2-methyl-6-[[4-(5-piperazin-1-yl-3-pyridyl)piperazin-1-yl]methyl]morpholin-4-yl]quinoline-8-carbonitrile], the IC50 was determined as 51 nM.

On to `C[C@@H]1CN(c2ccc(C#N)c3ncccc23)C[C@H](CN2CCN(c3ccc(N4CCNCC4)cn3)CC2)O1` [Example 8, 5-[(2R,6S)-2-methyl-6-[[4-(5-piperazin-1-yl-2-pyridyl)piperazin-1-yl]methyl]morpholin-4-yl]quinoline-8-carbonitrile], for which the IC50 was determined as 93 nM.

For the compound `C[C@@H]1CN(c2ccc(C#N)c3ncccc23)C[C@H](CN2CCN(c3cc(N4CCNCC4)ccn3)CC2)O1` [Example 9, 5-[(2R,6S)-2-methyl-6-[[4-(4-piperazin-1-yl-2-pyridyl)piperazin-1-yl]methyl]morpholin-4-yl]quinoline-8-carbonitrile], the IC50 stood at 32 nM.

For the compound `C[C@@H]1CN(c2ccc(C#N)c3ncccc23)C[C@H](CN2CCN(c3cccc(N4CCNCC4)n3)CC2)O1` [Example 10, 5-[(2R,6S)-2-methyl-6-[[4-(6-piperazin-1-yl-2-pyridyl)piperazin-1-yl]methyl]morpholin-4-yl]quinoline-8-carbonitrile], the IC50 is 105 nM.

In the case of `C[C@@H]1CN(c2ccc(C#N)c3ncccc23)C[C@H](CN2CCC(C#N)(c3ccc(N4CCNCC4)cc3)CC2)O1` [Example 11, 5-[(2S,6R)-2-[[4-cyano-4-(4-piperazin-1-ylphenyl)-1-piperidyl]methyl]-6-methyl-morpholin-4-yl]quinoline-8-carbonitrile], the IC50 is 92 nM.

Consider `C[C@@H]1CN(c2ccc(C#N)c3ncccc23)C[C@H](CN2CCN(c3cnc(N4CCNCC4)nc3)CC2)O1` [Example 12, 5-[(2R,6S)-2-methyl-6-[[4-(2-piperazin-1-ylpyrimidin-5-yl)piperazin-1-yl]methyl]morpholin-4-yl]quinoline-8-carbonitrile], for which the IC50 amounted to 32 nM.

For `C[C@@H]1CN(c2ccc(C#N)c3ncccc23)C[C@H](CN2CCN(c3ccc(N4CCNCC4)nc3)CC2)O1` [Example 13, 5-[(2R,6S)-2-methyl-6-[[4-(6-piperazin-1-yl-3-pyridyl)piperazin-1-yl]methyl]morpholin-4-yl]quinoline-8-carbonitrile], the IC50 is 142 nM.

Take `C[C@@H]1CN(c2ccc(C#N)c3ncccc23)C[C@H](CN2CCN(c3nccc(N4CCNCC4)n3)CC2)O1` [Example 14, 5-[(2R,6S)-2-methyl-6-[[4-(4-piperazin-1-ylpyrimidin-2-yl)piperazin-1-yl]methyl]morpholin-4-yl]quinoline-8-carbonitrile]: the IC50 turned out to be 32 nM.

With `C[C@@H]1CN(c2ccc(C#N)c3ncccc23)C[C@H](CN2CCN(c3ccnc(N4CCNCC4)n3)CC2)O1` [Example 15, 5-[(2R,6S)-2-methyl-6-[[4-(2-piperazin-1-ylpyrimidin-4-yl)piperazin-1-yl]methyl]morpholin-4-yl]quinoline-8-carbonitrile], the IC50 was found to be 36 nM.

In the case of `C[C@@H]1CN(c2ccc(C#N)c3ncccc23)C[C@H](CN2CCN(c3ncc(N4CCNCC4)cn3)CC2)O1` [Example 17, 5-[(2R,6S)-2-methyl-6-[[4-(5-piperazin-1-ylpyrimidin-2-yl)piperazin-1-yl]methyl]morpholin-4-yl]quinoline-8-carbonitrile], the IC50 stood at 186 nM.

For the compound `C[C@@H]1CN(c2ccc(C#N)c3ncccc23)C[C@H](CN2CCN(c3cc(N4CCNCC4)ncn3)CC2)O1` [Example 18, 5-[(2R,6S)-2-methyl-6-[[4-(6-piperazin-1-ylpyrimidin-4-yl)piperazin-1-yl]methyl]morpholin-4-yl]quinoline-8-carbonitrile], the IC50 was found to be 52 nM.

As for `C[C@@H]1CN(c2ccc(C#N)c3ncccc23)C[C@H](CN2CCN(c3ccc([C@@H]4CNCCO4)cc3)CC2)O1` [Example 19, 5-[(2R,6S)-2-methyl-6-[[4-[4-[(2R)-morpholin-2-yl]phenyl]piperazin-1-yl]methyl]morpholin-4-yl]quinoline-8-carbonitrile], the IC50 came out at 91 nM.

`C[C@@H]1CN(c2ccc(C#N)c3ncccc23)C[C@H](CN2CCN(c3ccc([C@H]4CNCCO4)cc3)CC2)O1` [Example 20, 5-[(2R,6S)-2-methyl-6-[[4-[4-[(2S)-morpholin-2-yl]phenyl]piperazin-1-yl]methyl]morpholin-4-yl]quinoline-8-carbonitrile]: the IC50 was found to be 96 nM.

As for `C[C@@H]1CN(c2ccc(C#N)c3ncccc23)C[C@H](CN2CCN(c3cc(N4CCN(C)CC4)ncn3)CC2)O1` [Example 21, 5-[(2R,6S)-2-methyl-6-[[4-[6-(4-methylpiperazin-1-yl)pyrimidin-4-yl]piperazin-1-yl]methyl]morpholin-4-yl]quinoline-8-carbonitrile], the IC50 turned out to be 219 nM.
